Here are results for 7 molecules from patent US5610174A, “Use of α1A -selective adrenoceptor agonists for the treatment of urinary incontinence” (priority 1995, dated 1997).

Where two headings read alike, the source gives them in different places.

Common to all, as to type: cell-based
Assay [1] has as its target T1, human α1B adrenoceptor (Homo sapiens, UniProt P35368).
T1 construct: The entire coding region of the α1B receptor (1563 bp); expressed in transfected cells
T1 sequence (P35368 1-520): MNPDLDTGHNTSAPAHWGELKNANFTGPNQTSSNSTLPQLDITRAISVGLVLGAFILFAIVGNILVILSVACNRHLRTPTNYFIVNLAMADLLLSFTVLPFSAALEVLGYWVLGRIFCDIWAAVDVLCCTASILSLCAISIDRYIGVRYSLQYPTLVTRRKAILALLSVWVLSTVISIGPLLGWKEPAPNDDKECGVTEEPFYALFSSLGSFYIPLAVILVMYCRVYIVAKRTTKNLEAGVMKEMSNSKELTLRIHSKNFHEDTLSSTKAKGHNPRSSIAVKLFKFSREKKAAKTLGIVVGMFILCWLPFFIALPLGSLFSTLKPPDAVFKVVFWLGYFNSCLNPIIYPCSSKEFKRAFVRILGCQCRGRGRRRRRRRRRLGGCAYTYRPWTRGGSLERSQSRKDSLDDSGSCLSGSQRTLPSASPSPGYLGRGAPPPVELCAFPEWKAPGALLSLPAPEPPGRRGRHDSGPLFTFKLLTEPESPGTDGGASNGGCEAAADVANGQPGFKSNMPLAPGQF
As to the kind of experiment: Phosphoinositide accumulation in cells expressing α1B. Particulars: for Emax: read-out: intrinsic activity (i.a.) α1B; for stimulation of inositol phosphate production, α1B: result in words. On the procedure: (§1) α1 -Adrenoceptor-Mediated Phosphoinositide Accumulation in Cultured Cell Lines
(§2) The agonist activity of test compounds was assayed by measuring their ability to generate phosphoinositide production in cells stably transfected with each of the three cloned human α1 -adrenoceptor subtypes. Cells were plated in 96-well plates and grown to confluence. The day before the assay the growth medium was changed to 100 μl of medium containing 1% serum and 0.5 μCi [^3 H] myo-inositol, and the plates were incubated overnight in a CO2 incubator (5% CO2 at 37° C.). Immediately before the assay, the medium was removed and replaced by 200 μl of PBS containing 10 mM LiCl, and the cells were equilibrated with the new medium for 20 min. During this interval cells were also equilibrated with the antagonist, added as 10 μl aliquot of a 20-fold concentrated solution in PBS.
(§3) The [^3 H] inositol-phosphate (IP) accumulation was started by adding 10 μl of a solution containing the agonist. To the first well 10 μl were added to measure basal accumulation, and 11 different concentrations of agonist were assayed in the following 11 wells of each plate row. All assays were performed in duplicate by repeating the same additions in two consecutive plate rows. The plates were incubated in a CO2 incubator for 1 hr. The reaction was terminated by adding 15 μl of 50% (v/v) trichloroacetic acid (TCA), followed by a 40 min incubation at 4° C.
(§4) After neutralizing TCA with 40 μl of 1 M Tris, the content of the wells was transferred to a Multiscreen HV filter plate (Millipore) containing Dowex AG1-X8 (200-400 mesh, formate form). The filter plates were prepared adding 200 μl of Dowex AG1-X8 suspension (50% v/v, water:resin) to each well. The filter plates were placed on a vacuum manifold to wash or eluted the resin bed. Each well was washed 2 times with 200 μl of water, followed by 2×200 μ of 5 mM sodium tetraborate/60 mM ammonium formate. The [3H] IPs were eluted into empty 96-well plates with 200 μl of 1.2 M ammonium formate/0.1 formic acid. The content of the wells was added to 3 mls of scintillation cocktail, and the radioactivity was determined by liquid scintillation counting.

Assay [2] addresses T2, human α1C adrenoceptor (Homo sapiens, UniProt P35348).
T2 sequence (P35348 1-466): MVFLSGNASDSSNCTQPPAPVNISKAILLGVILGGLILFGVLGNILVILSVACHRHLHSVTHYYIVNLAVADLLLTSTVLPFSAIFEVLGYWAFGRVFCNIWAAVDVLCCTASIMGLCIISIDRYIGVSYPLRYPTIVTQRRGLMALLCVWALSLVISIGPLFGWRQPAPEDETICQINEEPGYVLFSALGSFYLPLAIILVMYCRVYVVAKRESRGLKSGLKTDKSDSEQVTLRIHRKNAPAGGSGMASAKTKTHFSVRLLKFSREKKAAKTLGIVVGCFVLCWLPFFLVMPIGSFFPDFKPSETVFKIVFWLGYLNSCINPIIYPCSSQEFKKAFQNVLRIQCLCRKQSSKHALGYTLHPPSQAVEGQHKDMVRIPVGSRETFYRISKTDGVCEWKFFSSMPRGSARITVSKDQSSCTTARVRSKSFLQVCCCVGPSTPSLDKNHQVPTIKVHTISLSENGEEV
As to the kind of experiment: cell-based. Particulars: for Emax: read-out: intrinsic activity (i.a.) α1C. The method, then: as §1, §2, §3, §4

Assay [3] has as its target T3, human α2C adrenoceptor (Homo sapiens, UniProt P18825).
T3 construct: expressed in transfected cells; host or cells: LM(tk-)
T3 sequence (P18825 1-462): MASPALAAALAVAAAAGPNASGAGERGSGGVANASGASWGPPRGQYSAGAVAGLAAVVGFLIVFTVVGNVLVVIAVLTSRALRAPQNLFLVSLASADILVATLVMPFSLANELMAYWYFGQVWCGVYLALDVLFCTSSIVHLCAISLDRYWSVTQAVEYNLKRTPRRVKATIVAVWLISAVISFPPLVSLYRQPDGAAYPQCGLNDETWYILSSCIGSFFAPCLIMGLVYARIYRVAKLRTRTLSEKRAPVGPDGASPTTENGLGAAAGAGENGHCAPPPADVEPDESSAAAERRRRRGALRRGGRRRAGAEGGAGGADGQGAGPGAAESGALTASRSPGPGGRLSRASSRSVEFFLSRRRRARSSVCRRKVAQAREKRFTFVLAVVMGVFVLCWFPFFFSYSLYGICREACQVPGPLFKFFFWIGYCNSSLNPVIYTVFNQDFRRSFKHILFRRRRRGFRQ
The assay is described as follows: Inhibition of forskolin stimulated adenylyl cyclase, α2C. Particulars: for Emax: read-out: intrinsic activity (i.a.) α2C. The method, then:
α2 -Adrenoceptor-Mediated Inhibition of Forskolin Stimulated Adenylyl Cyclase
The agonist activity of test compounds was assayed by measuring their ability to inhibit adenylyl cyclase in cells stably transfected with each of the three cloned human α2 -adrenoceptors. LM(tk-) cells expressing the α2A - or the α2C -, as well as Y1 cells expressing the α2B -adrenoceptor were used. […] The formation of cyclic AMP was measured in cultures incubated with DMEM containing 1 mM theophylline. Twelve concentrations of the test compounds (from 10 pM to 100 μM) were added to the incubation medium and incubated at 37° C. for 20 min. Following this incubation step, 10 μM forskolin was added to stimulate the formation of cyclic AMP, and the cultures were incubated for another 10 min. The reaction was stopped by replacing the incubation medium with 100 mM HCl . The intracellular levels of cyclic AMP were measured by radioimmunoassay. The data from concentration-response curves was fitted to a four-parameter logistic equation, by non-linear regression analysis, to determine the pEC50 and intrinsic activity.

Setting [4] is: agonist, phosphoinositide accumulation, read-out: pEC50 α1C (converted).
[5] abbreviates: relative to reference full agonist (e.g., norepinephrine = unity).
[6] abbreviates: agonist, inhibition of forskolin stimulated adenylyl cyclase, read-out: pEC50 α2C (converted).

Regarding `COc1ccc(SC)c2c1C[C@@H]1[C@@H](C2)OCCN1C` (relative stereo) [SDZ NVI-085, (±)-trans-4-Methyl-6-methoxy-9-thiomethoxy-3,4,4a, 5,10,10a-hexahydro-2H-naphtho[2,3-b][1,4]oxazine], the EC50 is above 100 µM in assay [1] (agonist, phosphoinositide accumulation, read-out: pEC50 α1B (converted)); 0.398 µM in assay [2] (setting [4]); above 100 µM in assay [3] (setting [6]). The Emax amounted to 0% in assay [1], 110% in assay [2] (setting [5]) and 0% in assay [3].
For `CS(=O)(=O)Nc1c(O)ccc2c1CCCC2C1=NCCN1` (racemic) [Compound A-61603, (±)-N-[5-(4,5-Dihydro-1H-imidazol-2-yl)-2-hydroxy-5,6,7,8-tetra-hydronaphthalen-1-yl]methanesulfonamide], the results for the EC50 in assay [1] and in assay [3] (setting [6]) were 39.8 µM and 0.02 µM, respectively. Besides, the Emax is 10% in assay [1] (setting [5]), 120% in assay [2] (setting [5]) and 90% in assay [3] (setting [5]). Moreover, the “stimulation of inositol phosphate production, α1B” value in assay [1] is “virtually inactive”. Also, the “stimulation of inositol phosphate production, α1C” value in assay [2] (result in words) is “fully stimulate”.
As for `CN[C@@H](C)[C@H](O)c1ccccc1` [(-)-ephedrine], the results for the EC50 in assay [1], in assay [2] (setting [4]) and in assay [3] were 100 µM, 100 µM and 10 µM, respectively. The Emax in assay [1] is 20%; in assay [2] (setting [5]) it was 10%; in assay [3], 0%.
As for `CNC[C@H](O)c1cccc(O)c1` [(-)-phenylephrine], the Emax in assay [1] (setting [5]) and in assay [2] (setting [5]) was 90% throughout. Moreover, the “intrinsic activity (i.a.) α2C” value in assay [3] (setting [5]) is listed as 0.9.
On to `COc1ccc(OC)c(C(O)CN)c1` (racemic) [ST-1059, (±)-2-Amino-1-(2, 5 dimethoxyphenyl) ethanol], for which the EC50 in assay [1] was 6.31 µM; in assay [2], 2 µM; in assay [3] it was 0.501 µM. Further, the figures for the Emax in assay [1], in assay [2] (setting [5]) and in assay [3] were 10%, 90% and 50%, respectively.
In the case of `C[C@H](N)[C@H](O)c1ccccc1` [(-)-norephedrine], the values for the EC50 in assay [1], in assay [2] (setting [4]) and in assay [3] were 31.6 µM, 50.1 µM and 0.126 µM, respectively. Also, the values for the Emax in assay [1], in assay [2] (setting [5]) and in assay [3] were 0%, 40% and 60%, respectively.
For `CNCCc1ccc(O)c(NS(C)(=O)=O)c1` [SK&F 102652], in assay [1], the Emax was found to be 10% and the “stimulation of inositol phosphate production, α1B” value was “virtually inactive”. Besides, in assay [2], the “stimulation of inositol phosphate production, α1C” value was “fully stimulate” and the Emax was 110%. In addition, the Emax in assay [3] stood at 80%.
